For 28 compounds, EC50 results are on record in US20110190269A1, “GAMMA SECRETASE MODULATORS” (priority 2010, published 2011).

Each structure is given as a SMILES string. pEC50: −log10 of the molar value.

This experiment deals with γ-secretase. The experiment in a line: Cellular γ-secretase assay (inhibition of Aβ42 secretion). The format is cell-based. Conditions: human neuroglioma H4 cells overexpressing human APP, 22 hrs incubation. As for the experimental part:
Human neuroglioma H4 cells overexpressing human APP were plated at 30,000 cells/well/[…] in 96-well plates in IMDM media containing 10% FCS, […] Hygromycin B and incubated for 2 h at 37° C., 5% CO2 prior to adding test compounds.
Compounds for testing were dissolved in 100% Me2SO yielding in a 10 mM stock solution. Typically […] of these solutions were further diluted in 1000 μl of IMDM media (w/o FCS). Subsequent 1:1 dilutions gave a ten point dose response curve. 100 μl of each dilution was added to the cells in 96-well plates. Appropriate controls using vehicle only and reference compound were applied to this assay. The final concentration of Me2S0 was 0.4%.
After incubation for 22 hrs at 37° C., 5% CO2, 50 μl supernatant was transferred into round-bottom 96-well polypropylene plates for detection of Aβ42. 50 μl assay buffer (50 mM Tris/Cl, pH 7.4, 60 mM NaCl, 0.5% BSA, 1% TWEEN 20) was added to the wells followed by the addition of 100 μl of detection antibody (ruthenylated BAP15 0.0625 μg/ml in assay buffer). 50 μl of a premix of capture antibody (biotinylated 6E10 antibody, 1 μg/ml) and Steptavidin-coated magnetic beads (Dynal M-280, 0.125 mg/ml) were preincubated for 1 hr at room temperature before adding the assay plates. Assay plates were incubated on a shaker for 3 hrs at room temperature and finally read in the Bioveris M8 Analyser according to the manufacturer's instructions (Bioveris).
IC50 values for inhibition of Aβ42 secretion were calculated by nonlinear regression fit analysis using XLfit 4.0 software (IDBS).
By pEC50 is commonly meant −log10 of the EC50, conventionally taken in molar units. Read a high pEC50 as a low EC50. `COc1cc(Nc2nc3c(-c4ccc(F)c(F)c4)ccc(C(C)(C)O)n3n2)ccc1-n1cnc(C)c1` [Example 145, 2-{8-(3,4-Difluoro-phenyl)-2-[3-methoxy-4-(4-methyl-imidazol-1-yl)-phenylamino]-[1,2,4]triazolo[1,5-a]pyridin-5-yl}-propan-2-ol] had a pEC50 of 7.57.

`COc1cc(Nc2nc3c(-c4ccc(F)c(F)c4F)ccc(C(C)(C)O)n3n2)ccc1-n1cnc(C)c1` [Example 122, 2-[2-[3-Methoxy-4-(4-methyl-imidazol-1-yl)-phenylamino]-8-(2,3,4-trifluoro-phenyl)-[1,2,4]triazolo[1,5-a]pyridin-5-yl]-propan-2-ol] had a pEC50 of 7.10.

`COc1cc(Nc2nc3nc(C(C)C)cc(C(C)C)n3n2)ccc1-n1cnc(C)c1` [Example 25, (5,7-Diisopropyl-[1,2,4]triazolo[1,5-a]pyrimidin-2-yl)-[3-methoxy-4-(4-methyl-imidazol-1-yl)-phenyl]-amine acetate] had a pEC50 of 6.22. Against the preceding compound, the pEC50 is 0.88 log units lower.

Regarding `Cc1cn(-c2ccc(Nc3nc4c(-c5ccc(F)cc5Cl)cccn4n3)cc2C#N)cn1` [Example 113, 5-(8-(2-chloro-4-fluorophenyl)-[1,2,4]triazolo[1,5-a]pyridin-2-ylamino)-2-(4-methyl-1H-imidazol-1-yl)benzonitrile], the pEC50 was 7.09.

In turn, `COc1cc(Nc2nc3c(-c4ccc5c(c4)OCCN5C)cc(C)cn3n2)ccc1-n1cnc(C)c1` [Example 89, N-(3-Methoxy-4-(4-methyl-1H-imidazol-1-yl)phenyl)-6-methyl-8-(4-methyl-3,4-dihydro-2H-benzo[b][1,4]oxazin-7-yl)-[1,2,4]triazolo[1,5-a]pyridin-2-amine] had a pEC50 of 6.54.

The compound `COc1cc(Nc2nc3ncc(C#N)c(-c4cccc(C)c4)n3n2)ccc1-n1cnc(C)c1` [Example 40, 2-[3-Methoxy-4-(4-methyl-imidazol-1-yl)-phenylamino]-7-m-tolyl-[1,2,4]triazolo[1,5-a]pyrimidine-6-carbonitrile] had a pEC50 of 6.38.

With `COc1cc(Nc2nc3n(n2)CCCC3c2ccc(F)cc2)ccc1-n1cnc(C)c1` (racemic) [Example 1, [8-(4-Fluoro-phenyl)-5,6,7,8-tetrahydro-[1,2,4]triazolo[1,5-a]pyridin-2-yl]-[3-methoxy-4-(4-methyl-imidazol-1-yl)-phenyl]-amine], the negative logarithm of the EC50 (pEC50) is 6.48.

As for `CCOC(=O)c1cc(-c2ccc(F)c(Cl)c2)n2nc(Nc3ccc(-n4cnc(C)c4)c(OC)c3)nc2n1` [Example 94, Ethyl 7-(3-chloro-4-fluorophenyl)-2-(3-methoxy-4-(4-methyl-1H-imidazol-1-yl)phenylamino)-[1,2,4]triazolo[1,5-a]pyrimidine-5-carboxylate], the pEC50 was 7.41.

In turn, `COc1cc(Nc2nc3c(-c4ccc5ncn(C)c5c4)cc(C)cn3n2)ccc1-n1cnc(C)c1` [Example 88, N-(3-Methoxy-4-(4-methyl-1H-imidazol-1-yl)phenyl)-6-methyl-8-(1-methyl-1H-benzo[d]imidazol-6-yl)-[1,2,4]triazolo[1,5-a]pyridin-2-amine] showed a pEC50 of 6.73.

In turn, `Cc1cn(-c2ccc(Nc3nc4c(-c5ccc(F)cc5Cl)cccn4n3)cc2F)cn1` [Example 110, 8-(2-chloro-4-fluorophenyl)-N-(3-fluoro-4-(4-methyl-1H-imidazol-1-yl)phenyl)-[1,2,4]triazolo[1,5-a]pyridin-2-amine] gave a pEC50 of 7.54.

Consider `COc1cc(Nc2nc3c(-c4ccc(F)c(F)c4)cc(C(F)(F)F)cn3n2)ccc1-n1cnc(C)c1` [Example 80, 8-(3,4-Difluorophenyl)-N-(3-methoxy-4-(4-methyl-1H-imidazol-1-yl)phenyl)-6-(trifluoromethyl)-[1,2,4]triazolo[1,5-a]pyridin-2-amine], for which the pEC50 was 6.92.

`COc1cc(Nc2nc3cccc(-c4ccc(F)cc4)n3n2)ccc1-n1cnc(C)c1` [Example 8, [5-(4-Fluoro-phenyl)-[1,2,4]triazolo[1,5-a]pyridin-2-yl]-[3-methoxy-4-(4-methyl-imidazol-1-yl)-phenyl]-amine] had a pEC50 of 7.30.

Turning to `COc1cc(Nc2nc3c(-c4ccc(F)c(F)c4)cc(Cl)cn3n2)ccc1-n1cnc(C)c1` [Example 81, 6-Chloro-8-(3,4-difluorophenyl)-N-(3-methoxy-4-(4-methyl-1H-imidazol-1-yl)phenyl)-[1,2,4]triazolo[1,5-a]pyridin-2-amine], the pEC50 is 7.66.

For the compound `COc1cc(F)ccc1-c1cc(C)cn2nc(Nc3ccc(-n4cnc(C)c4)c(OC)c3)nc12` [Example 64, [8-(4-Fluoro-2-methoxy-phenyl)-6-methyl-[1,2,4]triazolo[1,5-a]pyridin-2-yl]-[3-methoxy-4-(4-methyl-imidazol-1-yl)-phenyl]-amine], the pEC50 was 7.14.

`COc1cc(Nc2nc3c(-c4cccc(CNC(=O)OC(C)(C)C)c4)cc(C)cn3n2)ccc1-n1cnc(C)c1` [Example 95, tert-Butyl 3-(2-(3-methoxy-4-(4-methyl-1H-imidazol-1-yl)phenylamino)-6-methyl-[1,2,4]triazolo[1,5-a]pyridin-8-yl)benzylcarbamate] gave a negative-log EC50 (pEC50) of 7.08.

Compound `COc1cc(Nc2nc3c(C4=CCN(C(=O)OC(C)(C)C)CC4)cc(C)cn3n2)ccc1-n1cnc(C)c1` [Example 96, tert-Butyl 4-(2-(3-methoxy-4-(4-methyl-1H-imidazol-1-yl)phenylamino)-6-methyl-[1,2,4]triazolo[1,5-a]pyridin-8-yl)-5,6-dihydropyridine-1(2H)-carboxylate] had a pEC50 of 7.03.

Take `COc1cc(Nc2nc3nc(C(F)(F)F)cc(-c4ccc(Cl)cc4)n3n2)ccc1-n1cnc(C)c1` [Example 20, [7-(4-Chloro-phenyl)-5-trifluoromethyl-[1,2,4]triazolo[1,5-a]pyrimidin-2-yl]-[3-methoxy-4-(4-methyl-imidazol-1-yl)-phenyl]-amine acetate]: the pEC50 is 6.97.

With `COc1cc(Nc2nc3c(-c4ccc(F)cc4Cl)cccn3n2)cc(F)c1-n1cnc(C)c1` [Example 112, 8-(2-chloro-4-fluorophenyl)-N-(3-fluoro-5-methoxy-4-(4-methyl-1H-imidazol-1-yl)phenyl)-[1,2,4]triazolo[1,5-a]pyridin-2-amine], the pEC50 is 7.34.

As for `COc1cc(Nc2nc3c(-c4ccc(F)cc4C)cc(C)cn3n2)ccc1-n1cnc(C)c1` [Example 66, [8-(4-Fluoro-2-methyl-phenyl)-6-methyl-[1,2,4]triazolo[1,5-a]pyridin-2-yl]-[3-methoxy-4-(4-methyl-imidazol-1-yl)-phenyl]-amine], the pEC50 was 6.62.

The compound `CCN(CC)c1cccc2nc(Nc3ccc(-n4cnc(C)c4)c(OC)c3)nn12` [Example 34, N5,N5-Diethyl-N2-[3-methoxy-4-(4-methyl-imidazol-1-yl)-phenyl]-[1,2,4]triazolo[1,5-a]pyridine-2,5-diamine] showed a pEC50 of 6.19.

As to `COc1cc(Nc2nc3c(-c4ccc(F)cc4F)cc(C)cn3n2)ccc1-n1cnc(C)c1` [Example 74, 8-(2,4-Difluorophenyl)-N-(3-methoxy-4-(4-methyl-1H-imidazol-1-yl)phenyl)-6-methyl-[1,2,4]triazolo[1,5-a]pyridin-2-amine], the pEC50 was 7.46.

In turn, `COc1cc(Nc2nc3cncc(-c4ccccc4)n3n2)ccc1-n1cnc(C)c1` [Example 13, [3-Methoxy-4-(4-methyl-imidazol-1-yl)-phenyl]-(5-phenyl-[1,2,4]triazolo[1,5-a]pyrazin-2-yl)-amine] gave a pEC50 of 7.00.

With `CCCc1cccc2nc(Nc3ccc(-n4cnc(C)c4)c(OC)c3)nn12` [Example 16, [3-Methoxy-4-(4-methyl-imidazol-1-yl)-phenyl]-(5-propyl-[1,2,4]triazolo[1,5-a]pyridin-2-yl)-amine], the pEC50 was 6.71.

Take `COc1cc(Nc2nc3cc(C(F)(F)F)ccn3n2)ccc1-n1cnc(C)c1` [Example 47, [3-Methoxy-4-(4-methyl-imidazol-1-yl)-phenyl]-(7-trifluoromethyl-[1,2,4]triazolo[1,5-a]pyridin-2-yl)-amine]: the negative-log EC50 (pEC50) is 5.87.

Turning to `COc1cc(Nc2nc3c(-c4ccc(F)c(F)c4)cccn3n2)ccc1-c1ccnc(C)c1` [Example 128, 8-(3,4-Difluorophenyl)-N-(3-methoxy-4-(2-methylpyridin-4-yl)phenyl)-[1,2,4]triazolo[1,5-a]pyridin-2-amine], the pEC50 is 7.52.

The compound `COc1cc(Nc2nc3c(C)cc(Cl)cn3n2)ccc1-n1cnc(C)c1` [Example 49, (6-Chloro-8-methyl-[1,2,4]triazolo[1,5-a]pyridin-2-yl)-[3-methoxy-4-(4-methyl-imidazol-1-yl)-phenyl]-amine] had a pEC50 of 5.87.

On to `COc1cc(Nc2nc3c(N4CCOCC4)cccn3n2)ccc1-n1cnc(C)c1` [Example 101, N-(3-Methoxy-4-(4-methyl-1H-imidazol-1-yl)phenyl)-8-morpholino-[1,2,4]triazolo[1,5-a]pyridin-2-amine], for which the pEC50 is 6.64.

The compound `COc1cc(Nc2nc3c(-c4ccc(Cl)cc4CO)cc(C)cn3n2)ccc1-n1cnc(C)c1` [Example 92, (5-Chloro-2-(2-(3-methoxy-4-(4-methyl-1H-imidazol-1-yl)phenylamino)-6-methyl-[1,2,4]triazolo[1,5-a]pyridin-8-yl)phenyl)methanol] showed a pEC50 of 6.43.
